Reference: patent US11584737B2, “Heterocyclic compound” (TAKEDA PHARMACEUTICAL COMPANY LIMITED, priority 2018, dated 2023)

Each compound was assayed against T1, CDK12/CycK complex (Homo sapiens, UniProt Q9NYV4) (assay: Measurement of CDK12 inhibitory activity by binding assay (BODIPY-FL labeled AT-7519 high concentration conditions, 1320 nM)). Settings: inhibitory rate against CDK12 at 1 μM test compound, 1320 nM BODIPY-FL-labeled AT-7519, 8 nM CDK12/CycK.
Description: (4) Measurement of CDK12 Inhibitory Activity by Binding Assay (BODIPY-FL Labeled AT-7519 High Concentration Conditions)
(§1) His-tagged CDK12/CycK complex was blended with a binding assay buffer supplemented with BODIPY-FL labeled AT-7519, terbium-labeled streptavidin and biotin-labeled anti-histidine antibody. This solution was added to an assay plate containing a test compound dispensed therein, and the mixture was left standing for 120 min at room temperature. The final concentration of CDK12/CycK complex, BODIPY-FL-labeled AT-7519, terbium-labeled streptavidin and biotin-labeled anti-histidine antibody was set to 8 nM, 1320 nM, 0.2 nM, and 0.4 nM, respectively. The fluorescence intensity derived from terbium and BODIPY-FL was measured using Envision. The signal value of each well was determined using the TR-FRET ratio calculated by the following formula. TR-FRET ratio=(fluorescence value of BODIPY-FL)÷(fluorescence value of terbium)
(§2) The inhibitory rate (%) of the test compound against CDK12 was calculated by the following formula. Inhibitory rate (%)=(1−(TR-FRET ratio of test compound−blank)÷(control−blank))×100
The TR-FRET ratio of the CDK12 enzyme reaction mixture under compound non-addition conditions is indicated as control, and the TR-FRET ratio under 30 μM AT-7519 addition conditions is indicated as blank.
The inhibitory rate of the test compound against CDK12 at 1 μM is shown below.

T1 sequence (Q9NYV4 whole entry, species assumed): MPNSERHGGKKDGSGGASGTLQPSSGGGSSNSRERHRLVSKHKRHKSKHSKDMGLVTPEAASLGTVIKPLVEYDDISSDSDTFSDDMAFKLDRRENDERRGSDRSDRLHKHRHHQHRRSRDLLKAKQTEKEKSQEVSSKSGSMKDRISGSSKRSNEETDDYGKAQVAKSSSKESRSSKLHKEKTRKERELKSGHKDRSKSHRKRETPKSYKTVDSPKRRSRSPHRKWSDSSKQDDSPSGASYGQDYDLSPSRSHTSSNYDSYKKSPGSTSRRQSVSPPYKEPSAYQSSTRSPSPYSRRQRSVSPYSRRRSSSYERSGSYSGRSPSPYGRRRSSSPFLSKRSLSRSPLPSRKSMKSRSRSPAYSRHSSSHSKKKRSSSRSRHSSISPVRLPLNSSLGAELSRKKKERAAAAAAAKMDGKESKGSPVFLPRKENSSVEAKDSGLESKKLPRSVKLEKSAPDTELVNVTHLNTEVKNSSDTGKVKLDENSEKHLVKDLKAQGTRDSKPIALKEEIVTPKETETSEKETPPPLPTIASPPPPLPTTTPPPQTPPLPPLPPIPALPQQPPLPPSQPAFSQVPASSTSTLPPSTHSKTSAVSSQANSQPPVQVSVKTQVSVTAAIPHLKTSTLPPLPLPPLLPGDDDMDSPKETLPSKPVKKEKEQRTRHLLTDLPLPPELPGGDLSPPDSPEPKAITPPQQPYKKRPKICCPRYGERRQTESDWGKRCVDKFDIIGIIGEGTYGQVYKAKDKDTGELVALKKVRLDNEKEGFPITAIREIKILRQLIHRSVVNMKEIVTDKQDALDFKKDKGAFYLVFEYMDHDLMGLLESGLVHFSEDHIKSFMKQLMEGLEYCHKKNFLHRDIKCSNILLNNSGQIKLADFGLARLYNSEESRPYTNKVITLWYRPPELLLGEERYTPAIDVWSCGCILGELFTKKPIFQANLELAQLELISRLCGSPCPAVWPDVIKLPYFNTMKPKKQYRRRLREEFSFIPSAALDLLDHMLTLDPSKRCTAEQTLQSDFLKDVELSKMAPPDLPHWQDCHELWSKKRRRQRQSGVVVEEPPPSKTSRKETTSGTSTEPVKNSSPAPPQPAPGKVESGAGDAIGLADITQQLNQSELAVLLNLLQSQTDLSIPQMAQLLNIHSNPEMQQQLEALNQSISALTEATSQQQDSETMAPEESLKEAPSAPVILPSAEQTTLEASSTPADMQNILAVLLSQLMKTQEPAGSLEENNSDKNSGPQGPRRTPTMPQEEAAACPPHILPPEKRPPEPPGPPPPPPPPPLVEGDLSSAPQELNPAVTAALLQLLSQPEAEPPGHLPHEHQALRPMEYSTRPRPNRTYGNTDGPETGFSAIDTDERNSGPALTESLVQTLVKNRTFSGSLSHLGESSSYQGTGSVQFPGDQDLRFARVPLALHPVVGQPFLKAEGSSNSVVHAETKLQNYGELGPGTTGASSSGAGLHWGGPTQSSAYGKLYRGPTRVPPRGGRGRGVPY
T1 sequence (O75909 whole entry partner, species assumed): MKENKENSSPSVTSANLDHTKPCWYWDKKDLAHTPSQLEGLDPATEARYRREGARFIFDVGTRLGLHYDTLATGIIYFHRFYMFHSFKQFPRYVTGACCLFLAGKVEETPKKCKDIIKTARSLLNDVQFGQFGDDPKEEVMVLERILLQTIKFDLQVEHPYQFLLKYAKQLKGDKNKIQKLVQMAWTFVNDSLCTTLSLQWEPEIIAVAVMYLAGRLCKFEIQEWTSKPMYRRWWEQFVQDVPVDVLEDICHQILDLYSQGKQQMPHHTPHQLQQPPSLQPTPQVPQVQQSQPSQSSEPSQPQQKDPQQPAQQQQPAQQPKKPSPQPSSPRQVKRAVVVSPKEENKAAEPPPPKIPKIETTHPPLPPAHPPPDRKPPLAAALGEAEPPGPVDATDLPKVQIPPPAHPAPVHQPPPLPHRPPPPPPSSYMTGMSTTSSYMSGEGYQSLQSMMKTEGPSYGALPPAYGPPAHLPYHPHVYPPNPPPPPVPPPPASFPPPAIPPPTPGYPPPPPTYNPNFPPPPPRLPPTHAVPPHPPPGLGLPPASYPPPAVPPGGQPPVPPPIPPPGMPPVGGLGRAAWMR

| Structure (SMILES) | inhibition at 1 µM [%] |
| --- | --- |
| COCC(=O)N(c1cnc(-c2cnn(C)c2)cn1)[C@H]1CC[C@H](Nc2ncc(C(F)(F)F)c(-c3ccn(C(F)F)n3)n2)CC1 [Example 811, N-(trans-4-((4-(1-(difluoromethyl)-1H-pyrazol-3-yl)-5-(trifluoromethyl)pyrimidin-2-yl)amino)cyclohexyl)-2-methoxy-N-(5-(1-methyl-1H-pyrazol-4-yl)pyrazin-2-yl)acetamide] | 94 |
| COCC(=O)N(c1cnc(-c2cnc(OC)nc2)cn1)[C@H]1CC[C@H](Nc2ncc(C(F)(F)F)c(-c3n[nH]cc3Cl)n2)CC1 [Example 796, N-(trans-4-((4-(4-chloro-1H-pyrazol-3-yl)-5-(trifluoromethyl)pyrimidin-2-yl)amino)cyclohexyl)-2-methoxy-N-(5-(2-methoxypyrimidin-5-yl)pyrazin-2-yl)acetamide] | 95 |
| COCCNC(=O)N(c1cnc(-c2cnc(OC)nc2)cn1)[C@H]1CC[C@H](Nc2ncc(C(F)(F)F)c(-c3nn(C(F)F)cc3Cl)n2)CC1 [Example 752, 1-(trans-4-((4-(4-chloro-1-(difluoromethyl)-1H-pyrazol-3-yl)-5-(trifluoromethyl)-pyrimidin-2-yl)amino)cyclo-hexyl)-3-(2-methoxyethyl)-1-(5-(2-methoxypyrimidin-5-yl)pyrazin-2-yl)urea] | 90 |
| COc1ncc(-c2cnc(N(C(=O)NCC(F)F)[C@H]3CC[C@H](Nc4ncc(C(F)(F)F)c(-c5n[nH]c(C)c5Cl)n4)CC3)cn2)cn1 [Example 745, 1-(trans-4-((4-(4-chloro-5-methyl-1H-pyrazol-3-yl)-5-(trifluoromethyl)pyrimidin-2-yl)amino)cyclohexyl)-3-(2,2-difluoroethyl)-1-(5-(2-methoxypyrimidin-5-yl)pyrazin-2-yl)urea] | 94 |
| COCCOC(=O)N(c1cnc(-c2cnc(OC)nc2)cn1)[C@H]1CC[C@H](Nc2ncc(C(F)(F)F)c(-c3cncc(S(C)(=O)=O)c3)n2)CC1 [Example 800, 2-methoxyethyl (trans-4-((4-(5-(methanesulfonyl)pyridin-3-yl)-5-(trifluoromethyl)pyrimidin-2-yl)amino)cyclohexyl) (5-(2-methoxypyrimidin-5-yl)pyrazin-2-yl)carbamate] | 91 |
| COCC(=O)N(c1cnc(-c2cnc(OC)nc2)cn1)[C@H]1CC[C@H](Nc2ncc(C(F)(F)F)c(-c3ccn(C(F)F)n3)n2)CC1 [Example 797, N-(trans-4-((4-(1-(difluoro-methyl)-1H-pyrazol-3-yl)-5-(trifluoromethyl)pyrimidin-2-yl)amino)cyclohexyl)-2-methoxy-N-(5-(2-methoxypyrimidin-5-yl)pyrazin-2-yl)acetamide] | 92 |
| COc1ncc(-c2cnc(N(C(=O)NCC(F)F)[C@H]3CC[C@H](Nc4ncc(C(F)(F)F)c(OC5(C)COC5)n4)CC3)cn2)cn1 [Example 777, 3-(2,2-difluoroethyl)-1-(5-(2-methoxypyrimidin-5-yl)pyrazin-2-yl)-1-(trans-4-((4-((3-methyloxetan-3-yl)oxy)-5-(trifluoromethyl)pyrimidin-2-yl)amino)cyclohexyl)urea] | 92 |
| COCCNC(=O)N(c1cnc(-c2cnn(C)c2)cn1)[C@H]1CC[C@H](Nc2ncc(C(F)(F)F)c(-c3nn(C(F)F)cc3Cl)n2)CC1 [Example 756, 1-(trans-4-((4-(4-chloro-1-(difluoromethyl)-1H-pyrazol-3-yl)-5-(trifluoromethyl)-pyrimidin-2-yl)amino)cyclo-hexyl)-3-(2-methoxyethyl)-1-(5-(1-methyl-1H-pyrazol-4-yl)pyrazin-2-yl)urea] | 90 |
| CCCC(=O)N(c1cnc(-c2cnn(C)c2)cn1)[C@H]1CC[C@H](Nc2ncc(C(F)(F)F)c(-c3cncc(S(C)(=O)=O)c3)n2)CC1 [Example 814, N-(trans-4-((4-(5-(methanesulfonyl)pyridin-3-yl)-5-(trifluoromethyl)pyrimidin-2-yl)amino)cyclohexyl)-N-(5-(1-methyl-1H-pyrazol-4-yl)pyrazin-2-yl)butanamide] | 99 |
| Cn1ccc(-c2cnc(N(C(=O)NCC(F)(F)F)[C@H]3CC[C@H](Nc4ncc(C(F)(F)F)c(-c5ccn(C(F)F)n5)n4)CC3)cn2)cc1=O [Example 768, 1-(trans-4-((4-(1-(difluoromethyl)-1H-pyrazol-3-yl)-5-(trifluoromethyl)-pyrimidin-2-yl)amino)-cyclohexyl)-1-(5-(1-methyl-2-oxo-1,2-dihydropyridin-4-yl)-pyrazin-2-yl)-3-(2,2,2-trifluoroethyl)urea] | 92 |
| COc1ncc(-c2cnc(N(C(=O)NCc3ccccc3)[C@H]3CC[C@H](Nc4ncc(C(F)(F)F)c(OC5(C)COC5)n4)CC3)cn2)cn1 [Example 640, 3-benzyl-1-(5-(2-methoxypyrimidin-5-yl)pyrazin-2-yl)-1-(trans-4-((4-((3-methyloxetan-3-yl)oxy)-5-(trifluoromethyl)pyrimidin-2-yl)amino)cyclohexyl)urea] | 105 |
| COc1ncc(-c2cnc(N(C(=O)N3CC(C)(O)C3)[C@H]3CC[C@H](Nc4ncc(C(F)(F)F)c(-c5n[nH]cc5Cl)n4)CC3)cn2)cn1 [Example 746, N-(trans-4-((4-(4-chloro-1H-pyrazol-3-yl)-5-(trifluoro-methyl)pyrimidin-2-yl)-amino)cyclohexyl)-3-hydroxy-N-(5-(2-methoxypyrimidin-5-yl)pyrazin-2-yl)-3-methylazetidine-1-carboxamide] | 91 |
| COc1ncc(-c2cnc(N(C(=O)OCCN3CCOCC3)[C@H]3CC[C@H](Nc4ncc(C(F)(F)F)c(-c5cncc(S(C)(=O)=O)c5)n4)CC3)cn2)cn1 [Example 808, 2-(morpholin-4-yl)ethyl (trans-4-((4-(5-(methanesulfonyl)-pyridin-3-yl)-5-(trifluoro-methyl)pyrimidin-2-yl)amino)cyclohexyl) (5-(2-methoxypyrimidin-5-yl)pyrazin-2-yl)carbamate] | 99 |

What follows are compounds tested against T1, CDK12/CycK complex (assay: Measurement of CDK12 inhibitory activity by binding assay (TR-FRET, 66 nM BODIPY-FL-labeled AT-7519)). Settings: inhibitory rate against CDK12 at 1 μM test compound, 66 nM BODIPY-FL-labeled AT-7519, 2 nM CDK12/CycK.
Description: Experimental Example 1: CDK12 Binding Assay
(3) Measurement of CDK12 Inhibitory Activity by Binding Assay
as §1, with “added to” for “blended with”, “antibody, and the mixture was stood for not less than 60 min at room temperature.” for “antibody.”, “2” for “8”, “66” for “1320”
as §2
The TR-FRET ratio of the CDK12 enzyme reaction mixture under compound non-addition conditions is indicated as control, and the TR-FRET ratio under 3 μM AT-7519 addition conditions is indicated as blank.
The inhibitory rate of the test compound against CDK12 at […] is shown below.

| Structure (SMILES) | inhibition at 1 µM [%] |
| --- | --- |
| COc1ncc(-c2ccc(N(C(=O)OCc3ccccn3)[C@H]3CC[C@H](Nc4ncc(C(F)(F)F)c(OC5COC5)n4)CC3)nc2)cn1 [Example 629, pyridin-2-ylmethyl (5-(2-methoxypyrimidin-5-yl)pyridin-2-yl) (trans-4-((4-(oxetan-3-yloxy)-5-(trifluoromethyl)pyrimidin-2-yl)amino)cyclohexyl)carbamate] | 100 |
| COc1ncc(-c2ccc(N(C(=O)NCc3ccccc3)[C@H]3CC[C@H](Nc4ncc(C#N)c(N5CC(C)(O)C5)n4)CC3)nc2)cn1 [Example 626, 3-benzyl-1-(trans-4-((5-cyano-4-(3-hydroxy-3-methylazetidin-1-yl)pyrimidin-2-yl)amino)cyclohexyl)-1-(5-(2-methoxypyrimidin-5-yl)pyridin-2-yl)urea] | 105 |
| COc1ncc(-c2ccc(N(C(=O)COc3ccccc3)[C@H]3CC[C@H](Nc4ncc(C(F)(F)F)c(N5CC(C)(O)C5)n4)CC3)nc2)cn1 [Example 623, N-(trans-4-((4-(3-hydroxy-3-methylazetidin-1-yl)-5-(trifluoromethyl)pyrimidin-2-yl)amino)cyclohexyl)-N-(5-(2-methoxypyrimidin-5-yl)pyridin-2-yl)-2-phenoxyacetamide] | 100 |
